Measured values as given in patent US5985893A, “Physically stable solid form of a fluoroquinolone” (Pharmacia & Upjohn Company, priority 1996, dated 1999).
Where “and” joins values, the source holds several entries; their conditions need not be identical. Equal entries are not always repeated.

Assays:
[1] = DSC and thermomicroscopy of solid-state transformations; assay type: physicochemical
Experimental: A Nikon POH-2 polarized light compound microscope with 10× objective is employed to view specimens mounted dry between a glass microscope slide and a no. 11/2 Cover slip. The samples are heated from ambient through 250° C. in a Mettler FP-80 microfurnace controlled by a Mettler FP-8 microprocessor. The heating rates may vary from 5-20° C./minute. The hot-stage experiments may be videotaped (Sony T120-HG and PM VHS tape) with a Hitachi VK-C350 Color Video Camera and a Panasonic AG-6200 Video Cassette Recorder.
Differential scanning calorimetry (DSC) is used to monitor enthalpy changes as a function of temperature during a linear temperature increase. A DuPont 910 DSC interfaced to a TA Instruments TA2100 computer may be used. The scan rate is 5° C./minute, and the instrument is operated with a 50-80 cc/min dry nitrogen purge. Samples are encapsulated in hermetically sealed aluminum sample pans with a pressure rating of about 2 bar. In some experiments, the lids of the pans are perforated to permit the passage of moisture and other volatile components.
Because calorimetric samples are occasionally affected by residual moisture, samples are sometimes studied with different initial water activities. Samples are weighed into tared DSC pans, and the open pans are permitted to equilibrate for several days in chambers of constant relative humidity at 25±1° C. These chambers are prepared from saturated salt solutions at 53% RH and 75% RH. At the end of the equilibration period, the chambers are opened, and the lids are placed over the samples to prevent re-equilibration with the ambient atmosphere. The samples are removed from the chambers, and the pans are quickly crimped closed.
Detailed description of FIG. 8. […] The heating rate is 5° C./minute. (a.) The sample is encapsulated in a standard DSC pan. (b.) The sample is encapsulated in a hermetically sealed DSC pan. The profiles are offset along the ordinate axis for comparison.
Detailed description of FIG. 10. […] The heating rate was 5° C./minute. (a.) The sample was equilibrated at 53% RH and encapsulated in a standard DSC pan. (b.)The sample was equilibrated at 53% RH and encapsulated in a hermetically sealed DSC pan. (c.) The sample was equilibrated at 75% RH and encapsulated in a hermetically sealed DSC pan. The profiles were offset along the ordinate axis for comparison.

[2] = Dynamic moisture sorption gravimetry (controlled atmosphere microbalance, 25° C); assay type: physicochemical
Experimental: Dynamic Moisture Sorption Gravimetry
Dynamic moisture uptake is studied on the controlled atmosphere microbalance system at 25° C. About ten mg of sample are equilibrated on the balance for about 2 hours at 2.5% RH. The relative humidity surrounding the sample is increased in increments of 3% RH up to about 92% RH, at which point the RH is decremented in 3% steps to a final RH of about 2.5%. At each relative humidity, the sample is allowed to equilibrate until the mass is stable within 0.0005 mg over a ten minute period. The dry mass is assumed to correspond to the mass of the sample after the initial equilibration period. A controlled atmosphere microbalance is a balance system described by Bergren, M.S. Int. J. Pharm. (1994) Vol. 103, pp. 103-114.
(§1) Detailed description of FIG. 2. […] The ordinate represents the mass change relative to the lowest mass measurement. The abscissa is relative humidity. The circles represent points recorded after sequential increases in the relative humidity and the squares were recorded after decreases in the relative humidity. The horizontal line in the middle of the plot corresponds to the water content of the hypothetical monohydrate of the quinolone.
as §1, with “6.” for “2.”

For `CN[C@@H](C)[C@@H]1CCN(c2c(F)cc3c(=O)c(C(=O)O)cn(C4CC4)c3c2OC)C1` [Form I, [S-(R*,S*)]-1-cyclopropyl-6-fluoro-1,4-dihydro-8-methoxy-7-[3-[1-(methylamino)ethyl]-1-pyrrolidinyl]-4-oxo-3-quinolinecarboxylic acid], which “DSC first merged endotherm/exotherm (melt/recrystallization)” value ([1]; FIG. 8, 5° C./minute) is on record?
The value was 140-150 °C.

And the “DSC second merged endotherm/exotherm (melt/recrystallization)” value ([1]; FIG. 8, 5° C./minute)?
The value was 165-180 °C.

What about the “DSC melt/recrystallization range, probably direct Form I to Form III” value ([1]; equilibrated at 53% RH, hermetically sealed pan) of the same compound?
The value was 140-150 °C.

And the “DSC exotherm prior to Form III melt” value ([1]; equilibrated at 75% RH, hermetically sealed pan)?
Its value is “about 130 °C”.

And the “Temperature of Form I to Form II transformation” value ([1]; slow heating/ thermomicroscopy melt/recrystallization)?
Its value is 140-151 °C and 143-151 °C.

What about the “Moisture content on desorption” value ([2]; RH decreased to 10%) of the same compound?
The value was “about 4.3%”.

And the “Moisture content on desorption” value ([2]; RH decreased to 80%)?
Its value is “about 4.9%”.

And the Moisture plateau ([2]; sorption, 90-92% RH)?
Its Moisture plateau is 7.5-7.7 % w/w.

And the Moisture pickup ([2]; sorption, up to 70% RH)?
Its Moisture pickup is 1%.
